Assay results taken from US20240041042A1, “1-(PYRIDYL)-5-AZINYLPYRAZOLE DERIVATIVES, AND THEIR USE FOR CONTROL OF UNDESIRED PLANT GROWTH” (Bayer Aktiengesellschaft, priority 2020, published 2024).
Like-named read-outs stand apart in the source and are kept apart here.

Tests used:
Type in all cases: in vivo
Zea mays (ZEAMX) [1] = settings: crop plant compatibility, 80 g/ha, effect vs untreated controls
Procedure, shortened: (§1)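 Effects were read visually as % versus untreated controls (0% = no effect, 100% = death) about 3 weeks post-treatment. Application was a post-emergence spray at the one-leaf stage of WP/EC formulations with 0.5% additive at 600 l/ha. Different dosages are denoted a, b and c.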

Oryza sativa (ORYSA) = settings: crop plant compatibility, effect in comparison to untreated controls
Procedure, shortened: as §1

Avena fatua (AVEFA) = assay: Post-emergence herbicidal action against AVEFA; settings: 320 g/ha, visual rating about 3 weeks after treatment
Procedure, shortened: (§2)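 Rates were 320 g/ha or below, applied as aqueous WP/EC spray with 0.5% additive (600 l/ha) onto one-leaf-stage plants. About 3 weeks later in the greenhouse, damage was scored visually against untreated plants on a 0–100% scale, where 100% means plants died.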

[2] = tested on: Digitaria sanguinalis (DIGSA); assay: Post-emergence herbicidal action against DIGSA; settings: 320 g/ha, visual rating about 3 weeks after treatment
Procedure, shortened: as §2

[3] = tested on: Pharbitis purpurea (PHBPU); assay: Post-emergence herbicidal action against PHBPU
Procedure, shortened: as §2

Lolium rigidum (LOLRI) [4] = assay: Pre-emergence herbicidal action against LOLRI; settings: dosage 320 g/ha
Procedure, shortened: (§3)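 Seeds sown in pots and covered with soil; WP or EC formulations sprayed onto the soil surface at 600 l/ha water with 0.5% additive, at 320 g/ha or lower. Greenhouse growth for about 3 weeks, then visual scoring as % effect against untreated controls (100% = plants dead).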

[5] = tested on: Amaranthus retroflexus (AMARE); assay: Post-emergence herbicidal action against AMARE; settings: 320 g/ha, visual rating about 3 weeks after treatment
Procedure, shortened: as §2

[6] = tested on: Amaranthus retroflexus (AMARE); assay: Pre-emergence herbicidal action against AMARE; settings: 320 g/ha, visual scoring after about 3 weeks vs untreated controls
Procedure, shortened: as §3

[7] = tested on: Polygonum convolvulus (POLCO); assay: Pre-emergence herbicidal action against POLCO; settings: dosage 320 g/ha
Procedure, shortened: as §3

[8] = tested on: Polygonum convolvulus (POLCO); assay: Post-emergence herbicidal action against POLCO
Procedure, shortened: as §2

Zea mays (ZEAMX) [9] = settings: pre-emergence, 80 g/ha, crop plant compatibility, in comparison to untreated controls
From the text: Seeds of monocotyledonous and dicotyledonous weed plants and crop plants are placed in plastic or organic planting pots and covered with soil. The compounds of the invention, formulated in the form of wettable powders (WP) or as emulsion concentrates (EC), are then applied to the surface of the covering soil as aqueous suspension or emulsion with addition of 0.5% additive at a water application rate equivalent to 600 l/ha. After the treatment, the pots are placed in a greenhouse and kept under good growth conditions for the trial plants. After about 3 weeks, the effect of the preparations is scored visually in comparison with untreated controls as percentages. For example, 100% activity=the plants have died, 0% activity=like control plants.
The observed effects on selected crop plants are reported here in comparison to the untreated controls (values in %). The appendices “a” “b” and “c” give differentiation by dosage used with otherwise the same crop plants tested.

Viola tricolor (VIOTR) = assay: Post-emergence herbicidal action against VIOTR; settings: 320 g/ha
Procedure, shortened: as §2

[10] = tested on: Alopecurus myosuroides (ALOMY); assay: Post-emergence herbicidal action against ALOMY; settings: 320 g/ha, visual rating about 3 weeks after treatment vs untreated controls (100% = plants have died, 0% = like control plants)
Procedure, shortened: as §2

[11] = tested on: Alopecurus myosuroides (ALOMY); assay: Pre-emergence herbicidal action against ALOMY; settings: 320 g/ha; scored visually after about 3 weeks; 100% = plants have died
Procedure, shortened: as §3

[12] = tested on: Digitaria sanguinalis (DIGSA); assay: Pre-emergence herbicidal action against DIGSA; settings: dosage 320 g/ha
Procedure, shortened: as §3

Lolium rigidum (LOLRI) [13] = assay: Post-emergence herbicidal action against LOLRI; settings: dosage 320 g/ha
Procedure, shortened: as §2

[14] = tested on: Matricaria inodora (MATIN); assay: Post-emergence herbicidal action against MATIN; settings: dosage 320 g/ha
Procedure, shortened: as §2

[15] = tested on: Verconica persica (VERPE); assay: Post-emergence herbicidal action against VERPE; settings: 320 g/ha, VERPE
Procedure, shortened: as §2

| SMILES | Post-emergence action against ZEAMX in % (Zea mays (ZEAMX) [1]) [%] | Post-emergence action against ORYSA in % (Oryza sativa (ORYSA); 80 g/ha) [%] | Post-emergence action against ORYSA in % (Oryza sativa (ORYSA); 320 g/ha) [%] | Post-emergence action against PHBPU in % ([3]; dosage 80 g/ha) [%] | Post-emergence action against PHBPU in % ([3]; dosage 320 g/ha) [%] | Pre-emergence action against LOLRI in % (Lolium rigidum (LOLRI) [4]) [%] | Post-emergence action against AMARE in % [5] [%] | Pre-emergence action against AMARE in % [6] [%] | Post-emergence action against POLCO in % ([8]; dosage 320 g/ha) [%] | Pre-emergence action against ZEAMX in % (Zea mays (ZEAMX) [9]) [%] | Post-emergence action against VIOTR in % (Viola tricolor (VIOTR)) [%] | Pre-emergence action against ALOMY [11] [%] | Pre-emergence action against DIGSA in % [12] [%] | also measured |
| --- | --- | --- | --- | --- | --- | --- | --- | --- | --- | --- | --- | --- | --- | --- |
| COC(=O)[C@@H](C)Oc1nn(-c2ccccn2)c(-c2ccc(Cl)nc2)c1Cl [Example I-237] | 10 | 0 | 20 | 80 | 90 | 90 | 90 | 100 | 80 | 0 | 80 | 90 | 90 | Post-emergence action against AVEFA in % (Avena fatua (AVEFA)): 80%; Post-emergence action against DIGSA in % [2]: 90%; Pre-emergence action against POLCO in % [7]: 80%; Post-emergence action against ALOMY in % [10]: 80%; Post-emergence action against LOLRI in % (Lolium rigidum (LOLRI) [13]): 80% |
| CCOC(=O)COc1nn(-c2ccccn2)c(-c2ccc(Cl)nc2)c1Cl [Example I-241] | 0 | 0 | 0 | 80 | 90 | 90 | 80 | 90 | 80 | 0 | 80 | 80 | 90 | Post-emergence action against POLCO in % ([8]; dosage 80 g/ha): 80%; Post-emergence action against MATIN in % [14]: 80%; Post-emergence action against VERPE in % [15]: 80% |
